Assay results published in ChEMBL document CHEMBL1201862, “PubChem BioAssay data set” (2004).
The source made the active and inactive calls.

How the values were obtained:
[1] = biological target: T1, Peroxisome proliferator-activated receptor gamma (Homo sapiens, UniProt P37231); experiment: PPARg ligand-binding domain binders, dose response, PPARg partial agonist project, biochemical, TR-FRET, LanthaScreen (AID 504446)
[2] = biological target: T1, Peroxisome proliferator-activated receptor gamma; experiment: PPARg partial agonists, dose response, cell-based, luminescence, assay provider (AID 504447); type: functional
[3] = biological target: Peroxisome proliferator-activated receptor alpha (Homo sapiens, UniProt Q07869); experiment: Late stage assay provider counterscreen for partial agonists of the peroxisome proliferator-activated receptor gamma (PPARg): Luminescence-based cell-based dose response assay for partial agonists of the peroxisome proliferator-activated receptor alpha (PPARA). [Related pubchem assays (depositor defined):AID1051, AID1300, AID1319, AID1679, AID1808, AID504446, AID504447, AID504452, AID504453, AID631]; type: functional
[4] = biological target: Voltage-dependent T-type calcium channel subunit alpha-1H (Homo sapiens, UniProt O95180); experiment: Cav3.2 T-type channel inhibitors, synthesized analogs, SAR follow-up, cell-based, synthetic library set 2, HEK293 HH8, Fluo-4 (AID 493023); type: functional
[5] = biological target: T2, Kappa-type opioid receptor (Homo sapiens, UniProt P41145); experiment: SAR analysis of Antagonists of the Kappa Opioid Receptor (KOR) using an Image-Based Assay - Set 2. [Related pubchem assays (depositor defined):AID1777, AID1785, AID1786, AID1966, AID2133, AID2136, AID2284, AID2285, AID2348]; type: functional
[6] = biological target: T2, Kappa-type opioid receptor; experiment: SAR analysis of small molecule agonists of the kappa opioid receptor via a luminescent beta-arrestin assay - Set 2. [Related pubchem assays (depositor defined):AID1777, AID1785, AID1786, AID1966, AID2133, AID2136, AID2284, AID449737]; type: functional
[7] = biological target: Delta-type opioid receptor (Homo sapiens, UniProt P41143); experiment: SAR Analysis of Antagonists of the DOR Receptor using an Image-Based Assay - Set 2. [Related pubchem assays (depositor defined):AID1777, AID1785, AID1786, AID1966, AID2133, AID2136, AID2284, AID2285, AID2357]; type: functional
[8] = biological target: T3, Dual specificity protein phosphatase 3 (Homo sapiens, UniProt P51452); experiment: SAR VHR1 absorbance Assay for In Vitro dose response studies. [Related pubchem assays (depositor defined):AID1654, AID1661, AID1878, AID1992, AID2004]
[9] = biological target: T3, Dual specificity protein phosphatase 3; experiment: SAR VHR1 Fluorescent Assay for In Vitro dose response studies. [Related pubchem assays (depositor defined):AID1654, AID1661, AID1878, AID1992, AID2004, AID2070, AID2085]; type: functional
[10] = biological target: T4, Tyrosine-protein phosphatase non-receptor type 7 (Homo sapiens, UniProt P35236); experiment: redox-dependent HePTP inhibition, mechanism study, biochemical, fluorescence (AID 2068); type: functional
T4 sequence (P35236 whole entry): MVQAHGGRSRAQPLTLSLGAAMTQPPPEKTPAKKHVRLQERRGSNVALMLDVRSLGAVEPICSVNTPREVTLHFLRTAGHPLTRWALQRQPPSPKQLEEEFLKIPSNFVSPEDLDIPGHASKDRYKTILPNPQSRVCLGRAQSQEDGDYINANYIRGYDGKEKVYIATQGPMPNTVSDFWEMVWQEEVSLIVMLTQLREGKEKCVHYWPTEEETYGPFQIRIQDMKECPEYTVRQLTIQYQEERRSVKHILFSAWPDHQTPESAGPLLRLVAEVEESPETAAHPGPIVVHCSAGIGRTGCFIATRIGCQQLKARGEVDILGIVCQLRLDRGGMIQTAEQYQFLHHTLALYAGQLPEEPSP

[11] = biological target: T3, Dual specificity protein phosphatase 3; experiment: SAR VHR1 Fluorescent Assay for In Vitro dose response studies Set 2. [Related pubchem assays (depositor defined):AID1654, AID1661, AID1878]; type: functional
[12] = biological target: T5, Dual specificity protein phosphatase 6 (Rattus norvegicus, UniProt Q64346); type: functional;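 further: confirmatory in vitro dose-response testing of MKP-3 inhibition; recombinant His-tagged MKP-3 made in E. coli BL21 with OMFP substrate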
T5 sequence (Q64346 whole entry): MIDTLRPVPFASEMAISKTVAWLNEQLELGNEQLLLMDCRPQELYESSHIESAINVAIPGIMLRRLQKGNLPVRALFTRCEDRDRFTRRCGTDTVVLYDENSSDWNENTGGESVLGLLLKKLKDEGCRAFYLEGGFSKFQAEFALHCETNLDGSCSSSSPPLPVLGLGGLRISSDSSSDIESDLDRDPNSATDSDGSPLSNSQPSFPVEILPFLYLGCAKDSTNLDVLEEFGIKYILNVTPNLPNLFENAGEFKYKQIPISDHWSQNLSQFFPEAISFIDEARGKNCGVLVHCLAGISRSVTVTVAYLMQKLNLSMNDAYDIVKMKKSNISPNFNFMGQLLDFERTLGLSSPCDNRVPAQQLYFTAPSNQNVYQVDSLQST

T3 sequence (P51452 whole entry): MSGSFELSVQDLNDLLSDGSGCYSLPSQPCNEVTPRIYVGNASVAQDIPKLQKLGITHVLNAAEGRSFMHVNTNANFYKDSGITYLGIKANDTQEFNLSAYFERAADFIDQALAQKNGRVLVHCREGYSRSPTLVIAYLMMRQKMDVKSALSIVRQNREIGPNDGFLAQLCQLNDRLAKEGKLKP
T1 sequence (P37231 whole entry, the tested form may be a part): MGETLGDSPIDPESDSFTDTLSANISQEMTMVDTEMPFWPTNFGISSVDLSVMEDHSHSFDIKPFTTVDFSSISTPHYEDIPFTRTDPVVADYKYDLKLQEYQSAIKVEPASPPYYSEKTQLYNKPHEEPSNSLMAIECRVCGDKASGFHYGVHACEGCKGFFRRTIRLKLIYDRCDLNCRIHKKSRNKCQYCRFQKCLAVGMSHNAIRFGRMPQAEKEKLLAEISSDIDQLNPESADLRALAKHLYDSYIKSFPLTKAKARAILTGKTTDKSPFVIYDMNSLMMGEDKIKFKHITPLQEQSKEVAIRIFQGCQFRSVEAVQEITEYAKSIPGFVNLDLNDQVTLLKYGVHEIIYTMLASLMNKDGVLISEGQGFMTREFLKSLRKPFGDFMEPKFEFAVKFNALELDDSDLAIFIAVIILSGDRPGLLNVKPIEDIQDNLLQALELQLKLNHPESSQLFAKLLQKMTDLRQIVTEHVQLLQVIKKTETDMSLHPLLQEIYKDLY
T2 sequence (P41145 whole entry): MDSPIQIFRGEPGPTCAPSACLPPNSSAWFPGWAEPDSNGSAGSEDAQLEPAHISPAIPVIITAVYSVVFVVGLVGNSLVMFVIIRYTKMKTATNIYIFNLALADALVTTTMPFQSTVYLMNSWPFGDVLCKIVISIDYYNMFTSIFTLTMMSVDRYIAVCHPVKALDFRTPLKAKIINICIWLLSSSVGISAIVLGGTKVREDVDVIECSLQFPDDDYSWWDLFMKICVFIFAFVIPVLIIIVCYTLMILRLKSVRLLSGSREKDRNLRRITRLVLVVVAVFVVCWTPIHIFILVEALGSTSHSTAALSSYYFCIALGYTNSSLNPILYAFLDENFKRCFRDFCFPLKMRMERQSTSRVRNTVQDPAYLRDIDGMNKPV
Chain of Voltage-dependent T-type calcium channel subunit alpha-1H (O95180 whole entry): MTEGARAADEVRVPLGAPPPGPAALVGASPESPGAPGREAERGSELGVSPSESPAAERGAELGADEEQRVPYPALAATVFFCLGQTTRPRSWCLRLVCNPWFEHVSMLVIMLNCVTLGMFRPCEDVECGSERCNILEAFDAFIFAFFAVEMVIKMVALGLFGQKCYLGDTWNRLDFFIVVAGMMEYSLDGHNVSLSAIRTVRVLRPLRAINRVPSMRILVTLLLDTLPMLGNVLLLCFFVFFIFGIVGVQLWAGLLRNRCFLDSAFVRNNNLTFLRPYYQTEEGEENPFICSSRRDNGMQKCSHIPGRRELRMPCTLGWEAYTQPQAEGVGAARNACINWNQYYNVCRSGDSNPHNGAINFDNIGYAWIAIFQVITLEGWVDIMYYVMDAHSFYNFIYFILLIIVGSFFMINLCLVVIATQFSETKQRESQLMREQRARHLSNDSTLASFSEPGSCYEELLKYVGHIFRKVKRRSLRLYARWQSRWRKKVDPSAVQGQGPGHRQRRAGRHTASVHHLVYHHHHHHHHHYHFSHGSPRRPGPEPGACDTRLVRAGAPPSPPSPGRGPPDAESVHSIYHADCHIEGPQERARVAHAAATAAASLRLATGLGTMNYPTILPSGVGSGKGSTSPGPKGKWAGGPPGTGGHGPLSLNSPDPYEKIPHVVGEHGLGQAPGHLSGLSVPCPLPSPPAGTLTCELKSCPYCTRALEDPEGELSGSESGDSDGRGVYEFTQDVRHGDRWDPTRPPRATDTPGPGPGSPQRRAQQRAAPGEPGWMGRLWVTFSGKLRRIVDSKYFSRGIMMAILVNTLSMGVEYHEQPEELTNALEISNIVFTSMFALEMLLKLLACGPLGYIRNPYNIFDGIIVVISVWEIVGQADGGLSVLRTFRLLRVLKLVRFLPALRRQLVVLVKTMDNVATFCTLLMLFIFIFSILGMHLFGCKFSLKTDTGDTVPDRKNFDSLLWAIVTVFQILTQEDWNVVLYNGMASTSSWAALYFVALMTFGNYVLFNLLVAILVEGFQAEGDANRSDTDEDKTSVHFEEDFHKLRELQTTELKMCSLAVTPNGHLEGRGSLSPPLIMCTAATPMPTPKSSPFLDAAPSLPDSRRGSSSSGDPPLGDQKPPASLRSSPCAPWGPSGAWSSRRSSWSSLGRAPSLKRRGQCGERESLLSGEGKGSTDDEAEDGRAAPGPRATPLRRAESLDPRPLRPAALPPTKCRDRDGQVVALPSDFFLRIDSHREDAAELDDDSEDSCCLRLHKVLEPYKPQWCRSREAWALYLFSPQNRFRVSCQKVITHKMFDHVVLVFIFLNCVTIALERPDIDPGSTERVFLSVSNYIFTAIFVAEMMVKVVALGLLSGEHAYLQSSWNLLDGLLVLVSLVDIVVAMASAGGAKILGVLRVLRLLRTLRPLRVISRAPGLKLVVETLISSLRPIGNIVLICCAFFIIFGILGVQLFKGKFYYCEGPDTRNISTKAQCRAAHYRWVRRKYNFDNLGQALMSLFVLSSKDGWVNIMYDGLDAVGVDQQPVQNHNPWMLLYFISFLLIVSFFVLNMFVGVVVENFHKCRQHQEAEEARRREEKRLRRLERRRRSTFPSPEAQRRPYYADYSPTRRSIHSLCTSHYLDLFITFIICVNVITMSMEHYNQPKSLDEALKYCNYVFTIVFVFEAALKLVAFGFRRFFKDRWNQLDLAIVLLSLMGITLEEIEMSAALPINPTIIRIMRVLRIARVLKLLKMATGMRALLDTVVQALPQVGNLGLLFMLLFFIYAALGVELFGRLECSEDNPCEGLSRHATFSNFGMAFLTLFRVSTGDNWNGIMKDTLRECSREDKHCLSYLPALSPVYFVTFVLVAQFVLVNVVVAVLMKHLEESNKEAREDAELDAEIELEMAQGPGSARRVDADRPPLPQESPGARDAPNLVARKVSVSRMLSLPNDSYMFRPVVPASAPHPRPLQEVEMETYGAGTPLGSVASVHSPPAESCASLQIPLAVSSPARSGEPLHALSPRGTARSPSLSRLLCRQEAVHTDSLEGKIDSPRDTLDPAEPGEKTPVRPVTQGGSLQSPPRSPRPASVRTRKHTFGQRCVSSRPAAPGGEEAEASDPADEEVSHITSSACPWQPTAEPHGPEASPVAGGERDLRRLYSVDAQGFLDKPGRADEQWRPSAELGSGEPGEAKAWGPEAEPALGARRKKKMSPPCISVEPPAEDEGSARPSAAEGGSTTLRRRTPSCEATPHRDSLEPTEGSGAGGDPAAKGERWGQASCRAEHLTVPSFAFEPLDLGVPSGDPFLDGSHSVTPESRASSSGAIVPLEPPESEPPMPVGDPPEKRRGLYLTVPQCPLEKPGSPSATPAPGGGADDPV
Chain of Delta-type opioid receptor (P41143 whole entry): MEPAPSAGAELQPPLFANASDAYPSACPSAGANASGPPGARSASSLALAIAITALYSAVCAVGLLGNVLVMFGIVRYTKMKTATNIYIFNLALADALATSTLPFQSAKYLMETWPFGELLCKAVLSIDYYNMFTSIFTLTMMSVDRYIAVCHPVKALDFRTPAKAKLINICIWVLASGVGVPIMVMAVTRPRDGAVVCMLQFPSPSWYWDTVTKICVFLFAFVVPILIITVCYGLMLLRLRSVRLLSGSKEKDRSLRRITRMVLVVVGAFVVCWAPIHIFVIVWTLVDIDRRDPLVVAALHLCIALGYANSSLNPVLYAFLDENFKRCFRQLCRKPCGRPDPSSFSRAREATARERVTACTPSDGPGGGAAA
Chain of Peroxisome proliferator-activated receptor alpha (Q07869 whole entry): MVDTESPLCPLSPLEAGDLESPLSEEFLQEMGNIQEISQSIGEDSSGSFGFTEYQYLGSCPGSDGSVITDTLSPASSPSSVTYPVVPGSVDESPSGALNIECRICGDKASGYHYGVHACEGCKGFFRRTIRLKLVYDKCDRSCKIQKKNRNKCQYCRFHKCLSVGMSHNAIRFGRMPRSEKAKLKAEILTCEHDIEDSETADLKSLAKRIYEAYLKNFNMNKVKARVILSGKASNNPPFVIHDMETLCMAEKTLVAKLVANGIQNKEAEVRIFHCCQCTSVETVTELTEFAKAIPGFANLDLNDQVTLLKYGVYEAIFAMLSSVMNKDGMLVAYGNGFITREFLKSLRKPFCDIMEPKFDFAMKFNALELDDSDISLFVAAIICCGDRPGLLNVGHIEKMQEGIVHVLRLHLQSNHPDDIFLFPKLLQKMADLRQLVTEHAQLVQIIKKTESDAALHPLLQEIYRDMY

Q: What does the source list for O=C(O)CCN1C(=O)/C(=C/c2cccc(OCc3ccc(F)cc3)c2)SC1=S?
A: IC50 [1]: 1.9 µM (active); EC50 [2]: 3 µM (active); EC50 [3]: 0.243 µM (active)

Q: Which EC50 [4] does the source give for CC(C)(C)CCN1CCC[C@@H](NC(=O)COc2ccc(F)cc2Cl)C1 here?
A: 10 µM (active)

Q: Which IC50 [5] does the source give for CC[C@](C)(C(=O)NC1CCCCC1)N(Cc1ccco1)C(=O)c1ccccn1 here?
A: > 32 µM (inactive)

Q: What about the EC50 [6] of the same compound?
A: 0.151 µM (active)

Q: What about the IC50 [7] of the same compound?
A: > 32 µM (inactive)

Q: How did the IC50 [8] turn out when NS(=O)(=O)c1cc(C(=O)NC2CCCc3ccccc32)ccc1Cl (configuration not stated) was run?
A: > 100 µM (inactive)

Q: And the IC50 [9]?
A: > 100 µM (inactive)

Q: What about the IC50 [10] of the same compound?
A: > 100 µM (inactive)

Q: And the IC50 [11]?
A: > 100 µM (inactive)

Q: What about the IC50 [12] of the same compound?
A: > 100 µM (inactive)
